Measured values from patent publication US3963707A, “Novel N-nitroso compounds, compositions containing such compounds, processes for their preparation and methods of treatment therewith, and novel intermediates” (Aktiebolaget Leo, priority 1973, dated 1976).
Like-named read-outs stand apart in the source and are kept apart here.

What was measured:
in vivo = test: in vivo; parameters: species or system SPF Wistar rats; settings: rat, in vivo, ip; one injection i.p., rats; dose causing 50 percent lethality
Procedure, shortened: (§1)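 SPF Wistar rats were implanted i.p. with 5 × 10^6 AH 130 cells and given one i.p. dose the next day. On day 8 they were killed and tumour weights were compared with controls. ED50 is the dose halving tumour size, LD50 the 50% lethal dose, and T.I. is LD50/ED50.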

Hepatoma AH 130 = test: in vivo; parameters: species or system SPF Wistar rats; settings: for T.I. (LD50/ED50): Hepatoma AH 130, rats, i.p.; for ED50: Rattus norvegicus, ip, 192 h, one injection i.p. day after implantation, dose causing 50 percent reduction of tumour size; for anti-tumor activity: additional compounds, result in words
Procedure, shortened: as §1

utering weight = test: Estrogenic effect in immature female mice; format: in vivo; settings: for estrogenic activity, 17β-estradiol and its 3-acetate compared with each other: same kind of experiment
Procedure: (§2) The androgenic and estrogenic activities, as described below, are determined with established methods (see e.g. Dorfman, R.: Methods in Hormone Research, vol. II, Acad. Press, New York and London 1962, pp. 93 and 275).
The estrogenic effect is assayed in immature female mice. The animals receive the compounds once daily for three consecutive days, and on the 4th day the utering weight is determined.

[1] = test system: Walker carcinosarcoma 256; test: Walker carcinosarcoma 256 test; format: in vivo, Sprague Dawley rats; settings: 5×250 mg/kg i.p.; for Lethality: died/used animals
From the text: (§3) The experimental design and the interpretation of the results have been in accordance with the standards set by the CCNSC (Cancer Chemotherapy Reports, January 1959 and December 1962), and by the DR&D (Cancer Chemotherapy Reports, September 1972, Vol. 3, No. 2).
(§4) The way of administration is by the intraperitoneal route (i.p.) in each case.
Walker carcinosarcoma 256
Experimental animals: Sprague Dawley rats.
Tumour implant: Tumour pieces with 2-4 mm diameter, subcutaneously.
Therapy: Daily injections i.p. for 5 days starting on the day following implantation.
Termination: The animals are killed on the 9th day.
Evaluation: Weights of tumours of test animals are compared with those of control animals. The differences, in per cent of weights of tumours of control animals, give per cent tumour inhibition.
The lethality is given as the number of animals which died in the experiment/the number of animals used in the experiments.

[2] = test system: Ehrlich ascites tumour, ELD hyperdiploid (46 chromosomes); test: Ehrlich ascites tumour test (LD50, ED50, therapeutic index); format: in vivo, SPF NMRI mice; settings: for anti-tumor activity: additional compounds, result in words; for T.I. (LD50/ED50): Ehrlich ascites, mice, i.p.; for ED50: Mus musculus, Ehrlich, ip, one injection i.p. day after implantation, dose causing 50 percent reduction of tumour size, read-out: ED50
Procedure, shortened: (§5)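 SPF NMRI mice implanted i.p. with 2 × 10^6 Ehrlich ascites (ELD hyperdiploid) cells and given a single i.p. dose the next day; killed on day 8. ED50 = dose halving tumour weight versus controls, LD50 = dose lethal to 50%; T.I. = LD50/ED50.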

[3] = Thymolytic effect according to A. C. Hilger (assay 8); settings: in vivo
From the text: Thymolytic effect according to A. C.

[4] = test system: Lymphatic leukemia L 1210; test: Lymphatic leukemia L 1210 test; format: in vivo, CDF1 (C3H×DBA/2)F1 mice; settings: for effect on L 1210: result in words, dose not given; for Effect %: survival time as percentage of control; for Weight change v: vs control up to the 5th day
From the text: as §3, §4
Lymphatic leukemia L 1210
Experimental animals: CDF1 (C3H×DBA/2)F1 mice.
Tumour implant: 10^5 tumour cells i.p.
Therapy: One injection i.p. on the day following implantation.
Evaluation: a) The survival time of the test animals (t) expressed as the percentage of that of control animals (c).
b. Weight change in the test animals (T) compared with that of the control animals (c) up to the 5th day.
c. The mortality rate must not exceed 35% in the test animals on the 5th day of therapy.

[5] = acute intraperitoneal toxicity in mice; cited from earlier work
[6] = test system: lymphoid leukemia (L 1210); settings: result in words; cited from earlier work
Walker 256 = settings: result in words; cited from earlier work
ventral prostate [7] = test: Androgenic effect in castrated male rats; format: in vivo; settings: subcutanous and intraperitoneal administration, 7 days
Procedure: as §2
The androgenic effect is assayed in castrated male rats. Beginning two weeks after castration the animals are given one daily injection of the compound for 7 days. The weight of the ventral prostate is determined on the 8th day.

[8] = Progestational activity in the Clanberg test; format: in vivo; settings: standard scale of McPhail
Sarcoma 180 = settings: result in words; cited from earlier work
Adenocarcinoma 755 = settings: result in words; cited from earlier work
[9] = Ehrlich ascites tumour test (LD50, ED50, therapeutic index); format: in vivo, SPF NMRI mice; settings: mouse, in vivo, ip; one injection i.p., mice; dose causing 50 percent lethality
Procedure, shortened: as §5

ventral prostate [10] = settings: as reported in the literature; cited from earlier work

CC(=O)Oc1ccc2c(c1)CC[C@@H]1[C@@H]2CC[C@]2(C)[C@@H](OC(=O)N(CCCl)N=O)CC[C@@H]12 [estradiol-3-acetate-17β-N-(2-chloroethyl)-N-nitroso carbamate]
LD50 (in vivo): > 1000 mg/kg
T.I. (LD50/ED50) (Hepatoma AH 130): > 10
ED50 (Hepatoma AH 130): 96 mg/kg
estrogenic effect compared with 17β-estradiol and 17β-estradiol-3-acetate (utering weight; given orally, subcutanously or intraperitoneally): about 10 times weaker
Tumour inhibition % [1]: 74%
Lethality [1]: 1/8
anti-tumor activity [2]: exhibit anti-tumor activity

C[C@]12C=CC(=O)C=C1CC[C@@H]1[C@@H]2[C@@H](O)C[C@@]2(C)[C@H]1CC[C@]2(O)C(=O)COC(=O)N(CCCl)N=O [prednisolone-21-N-(2-chloroethyl)-N-nitroso carbamate]
thymolytic activity compared with prednisolone acetate [3]: about the same activity as prednisolone acetate
anti-tumor activity (Hepatoma AH 130): exhibit anti-tumor activity
effect on L 1210 [4]: show a significant effect
anti-tumor activity [2]: exhibit anti-tumor activity

CC(C)COC(=O)N(CCCl)N=O [(CH3)2 CHCH2 --]
LD50 [5]: 7 mg/kg
activity against lymphoid leukemia (L 1210) [6]: inactive
activity against Walker 256 (Walker 256): inactive

C[C@]12CC[C@H]3[C@@H](CCC4=CC(=O)CC[C@@]43C)[C@@H]1CC[C@@H]2OC(=O)N(CCCl)N=O [testosterone-17β-N-(2-chloroethyl)-N-nitroso carbamate]
androgenic effect compared with testosterone (ventral prostate [7]): about the same androgenic effect as testosterone
LD50 (in vivo): > 1000 mg/kg
T.I. (LD50/ED50) (Hepatoma AH 130): > 100
ED50 (Hepatoma AH 130): 8 mg/kg
Tumour inhibition % [1]: 64%
Lethality [1]: 0/8
Mortality ([4]; 1×125 mg/kg i.p.): 0/40
Effect % ([4]; 1×125 mg/kg i.p.): 125%
Weight change v ([4]; 1×125 mg/kg i.p.): -1.8 g
anti-tumor activity [2]: exhibit anti-tumor activity

C#C[C@]1(OC(C)=O)CC[C@H]2[C@@H]3CCC4=C[C@@H](OC(=O)N(CCCl)N=O)CC[C@@H]4[C@H]3CC[C@@]21C [ethynodiol-17β-acetate-3β-N-(2-chloroethyl)-N-nitroso carbamate]
anti-tumor activity (Hepatoma AH 130): exhibit anti-tumor activity
progestational activity compared with ethynodiol-3,17-diacetate [8]: about half that of ethynodiol-3,17 -diacetate
anti-tumor activity [2]: exhibit anti-tumor activity

CCOC(=O)N(CCCl)N=O [C2 H5 --]
LD50 [5]: 2 mg/kg
activity against lymphoid leukemia (L 1210) [6]: inactive
activity against Sarcoma 180 (Sarcoma 180): inactive
activity against Adenocarcinoma 755 (Adenocarcinoma 755): inactive

C[C@]12CC[C@H](OC(=O)N(CCCl)N=O)CC1=CC[C@@H]1[C@@H]2CC[C@]2(C)C(=O)CC[C@@H]12 [dehydroepiandrosterone-3β-N-(2-chloroethyl)-N-nitroso carbamate]
androgenic effect compared with testosterone (ventral prostate [7]): somewhat weaker androgenic effect
LD50 (in vivo): > 1000 mg/kg
ED50 (Hepatoma AH 130): 0.4 mg/kg
Tumour inhibition % [1]: 66%
Lethality [1]: 0/16
Mortality ([4]; 1×500 mg/kg i.p.): 0/40
Effect % ([4]; 1×500 mg/kg i.p.): 143%
Weight change v ([4]; 1×500 mg/kg i.p.): -2.5 g
LD50 [9]: > 1000 mg/kg
T.I. (LD50/ED50) [2]: > 102
ED50 [2]: 98 mg/kg

O=NN(CCCl)C(=O)Oc1ccccc1 [Phenyl]
LD50 [5]: 3 to 7 mg/kg

CCCCOC(=O)N(CCCl)N=O [CH3 (CH2)2 CH2 --]
LD50 [5]: 11 to 15 mg/kg

C[C@]12CC[C@@H]3c4ccc(O)cc4CC[C@H]3[C@@H]1CC[C@@H]2O [17β-estradiol, estra-1,3,5(10)-triene-3,17β-diol]
estrogenic activity, 17β-estradiol and its 3-acetate compared with each other (utering weight): about the same estrogenic activity

C[C@]12C=CC(=O)C=C1CC[C@@H]1[C@@H]2[C@@H](O)C[C@@]2(C)[C@H]1CC[C@]2(O)C(=O)COC(=O)N(CCCl)C(=O)N(CCCl)N=O [prednisolone-21-/N^2,N^4-bis (2-chloroethyl)-N^4-nitroso allophanate/]
thymolytic activity compared with prednisolone acetate [3]: about the same activity as prednisolone acetate
anti-tumor activity (Hepatoma AH 130): exhibit anti-tumor activity
effect on L 1210 [4]: show a significant effect
anti-tumor activity [2]: exhibit anti-tumor activity

C#C[C@]1(OC(C)=O)CC[C@H]2[C@@H]3CCC4=C[C@@H](OC(=O)N(C(=O)N(CCCl)N=O)C5CCCCC5)CC[C@@H]4[C@H]3CC[C@@]21C [ethynodiol-17β-acetate-3β-/N^2-cyclohexyl-N^4-(2-chloroethyl)-N^4-nitroso allophanate/]
anti-tumor activity (Hepatoma AH 130): exhibit anti-tumor activity
progestational activity compared with ethynodiol-3,17-diacetate [8]: about half that of ethynodiol-3,17 -diacetate
anti-tumor activity [2]: exhibit anti-tumor activity

CS(=O)(=O)OCCCCOS(C)(=O)=O [Busulfan, reference compound]
LD50 [9]: 71 mg/kg
T.I. (LD50/ED50) [2]: 1.3
ED50 [2]: 55 mg/kg

S=P(N1CC1)(N1CC1)N1CC1 [Triethylene-thiophosphoramide, reference compound]
LD50 [9]: 22 mg/kg
T.I. (LD50/ED50) [2]: 1.5
ED50 [2]: 15 mg/kg

C[C@]12CC[C@H](O)CC1=CC[C@@H]1[C@@H]2CC[C@]2(C)C(=O)CC[C@@H]12 [dehydroepiandrosterone, androst-5-en-3β-ol-17-one]
androgenic effect compared with testosterone (ventral prostate [10]): weaker androgenic effect

O=NN(CCCl)C(=O)Oc1ccc2ccccc2c1 [β-Naphthyl]
LD50 [5]: 42 mg/kg

CC(=O)Oc1ccc2c(c1)CC[C@@H]1[C@@H]2CC[C@]2(C)[C@@H](O)CC[C@@H]12 [17β-estradiol-3-acetate]
estrogenic activity, 17β-estradiol and its 3-acetate compared with each other (utering weight): about the same estrogenic activity
